Experimental data from US20110003796A1, “METHOD FOR THE TREATMENT OF PSYCHIC DISORDERS” (Consejo Nacional de Investigaciones Cientificas y Tecnicas …, priority 2009, published 2011).
Entries after “also recorded” stand apart in the source; their conditions may differ. Structures can show the parent of a compound that is named as a salt.

Columns and labels:
[1] = tested on: rats; experiment: Open field test (locomotor activity); type: in vivo, rat (male Wistar)
Protocol: These studies were performed exactly the same way as the studies of FST had been carried. All rats that experimented the first day of FST (pre-test), received the different treatments during 16 days. On day 17 they were placed in the cage of open field (60×60×60 cm) with the floor divided in squares (15×15 cm). The tests were performed between 14:00 and 17:00 hours, illuminated with an electric bulb of 75 W and placed 75 cm above the floor of the cage, in a quiet room. The locomotion was measured by the number of squares they enter with the four legs (counts), over a period of 5 minutes. After withdrawing the animal, the open field was carefully cleaned with a damp wipe.

[2] = tested on: rats; experiment: Forced swimming test (FST); type: in vivo, rat (male Wistar); details: for climbing in FST / immobility in FST / swimming in FST: 16 days
Protocol: (§1) The experiments were carried out with male Wistar rats with a body weight of 200-386 g. Rats were kept in a cycle of 12 hours of light (8:00 a 20:00) and 12 hours of darkness with free access to water and food except during the tests. The rats were divided in four groups, housed in individual polyethylene cages of with three or four rats each (55×38×30 cm) and fed with standard diet for the controls (C) or diet supplemented with omega-3 fatty acids (ω3). The animals were used only once in each test. All tests were performed in agreement with the Guidelines for the Care and Use of Laboratory Animals provided by National Institutes of Health of United States of America.
The Fluoxetine Hydrochloride (FLX) and mirtazapine (MTZ) were administered intra-peritoneally (IP) in a volume equivalent to 1 cc/kg and were freshly prepared each morning. The FLX was dissolved in distilled water and MZT was solubilized in isotonic saline (0.9% NaCl) plus three or four drops of glacial acetic acid to dissolve this solution. […] All control rats were given injections of saline.
In all cases antidepressant drugs or the saline solution were given once a day for 16 days, the final injection was given 24 hours before the test session (FIGS. 6 and 18).
The omega-3 fatty acids were given as diet supplement in the food enriched with salmon oil for 16 days. Each 1000 mg of highly concentrated salmon oil contains about 30% of omega-3, from which 17% is EPA and 13% is DHA; therefore there were 40 mg of omega-3 fatty acids per gram of enriched food. Rats of the ω3 group received a dose of about 0.72 g/kg/day of omega-3 fatty acids.
The swimming sessions were carried out placing the rats in Plexiglas cylinders (46 cm of height and 20 cm of diameter) which had been previously filled with water (23-25° C.) to 30 cm from the bottom. All swimming sessions were performed between 12:00 and 18:00 hours.
Two sessions were performed: an initial pre-test for 15 minutes followed by a 5-minute test, after 16 days. The drugs were given between both sessions.
Rats were studied at 5-second intervals during the session of forced swimming session. At each interval of 5 seconds, the predominant behavior was assigned to one of the following categories: (1) immobility: flotation in water without fighting, only doing the necessary movements to keep the head out of the water; (2) swimming, making the movements of active swimming, plus the ones necessary to keep simply the head out of the water (i.e., moving around the cylinder); and (3) climbing, making active movements with fore hints out of the water, usually against walls. The scoring for each behavior was expressed as the total of records per session of 5 minutes.

[3] = tested on: rats; details: cited from earlier work; for antidepressant effect in prior studies: FLX 1 mg/kg, MTZ 1 mg/kg; for effect on the FST in prior studies: FLX 10 mg/kg, MTZ 20 mg/kg, similar test conditions
[4] = Body weight gain during chronic treatment; type: in vivo, rat (male Wistar)
Protocol: Tests were performed to analyze the body weight gain during chronic treatments with antidepressants and/or omega-3 fatty acids.
as §1

[5] = fluoxetine 10 mg/kg ip and/or omega-3 0.72 g/kg
[6] = mirtazapine 20 mg/kg ip and/or omega-3 0.72 g/kg

| SMILES | spontaneous locomotor activity in open field ([1]; fluoxetine 1 mg/kg and/or omega-3 0.72 g/kg) | spontaneous locomotor activity in open field test ([1]; fluoxetine 10 mg/kg and/or omega-3 0.72 g/kg) | effect of treatment on behaviors in FST ([2]; fluoxetine 1 mg/kg ip alone, two-factor ANOVA) | climbing in FST [2, 5] | immobility in FST [2, 5] | swimming in FST [2, 5] | effect of treatment on the FST ([2]; fluoxetine sub-optimal doses lower than 1 mg/kg (0.1 and 0.5 mg/kg) alone) | antidepressant effect in prior studies [3] | effect on the FST in prior studies [3] | body weight ([4]; fluoxetine 10 mg/kg and/or omega-3 0.72 g/kg, vs control group) | body weight gain ([4]; fluoxetine sub-optimal dose 1 mg/kg) | spontaneous locomotor activity in open field ([1]; mirtazapine 1 mg/kg and/or omega-3 0.72 g/kg/day) | spontaneous locomotor activity in open field test ([1]; mirtazapine 20 mg/kg and/or omega-3 0.72 g/kg) | climbing in FST [2, 6] | immobility in FST [2, 6] | swimming in FST [2, 6] | time of immobility in FST ([2]; mirtazapine sub-optimal dose 1 mg/kg ip and/or omega-3 0.72 g/kg/day, vs control) | body weight gain ([4]; mirtazapine 20 mg/kg and/or omega-3 0.72 g/kg, chronic) | body weight gain ([4]; mirtazapine sub-optimal dose 1 mg/kg and/or omega-3 0.72 g/kg, 1 mg/kg) | body weight gain ([4]; mirtazapine sub-optimal dose 1 mg/kg and/or omega-3 0.72 g/kg, listed as Mirtazapine, 1 mg/kg) |
| --- | --- | --- | --- | --- | --- | --- | --- | --- | --- | --- | --- | --- | --- | --- | --- | --- | --- | --- | --- | --- |
| CNCCC(Oc1ccc(C(F)(F)F)cc1)c1ccccc1 (stereo not shown) [fluoxetine, Fluoxetine Hydrochloride] | None of these treatments with antidepressant effects in the FST affected the levels of activity | None of these treatments with antidepressant effects in the FST affected the activity levels | no effect of treatment with FLX | without modifying the behavioral levels of climbing | reduces immobility | increases swimming | did not have any effect on the FST | not showing an antidepressant effect | produce a more robust effect on the FST | Body weight was significantly lower | Body weight gain was reduced although in a lesser extend |  |  |  |  |  |  |  |  |  |
| CN1CCN2c3ncccc3Cc3ccccc3C2C1 (stereo not shown) [mirtazapine] |  |  |  |  |  |  |  | not showing an antidepressant effect | produce a more robust effect on the FST |  |  | did not interfere with the locomotor activity | did not interfere with the responses of locomotor activity | increase | significantly reduced the immobility | corresponding increase in the swimming | did not significantly change the time of immobility | significantly reduced the body weight gain; also recorded: significant decrease in body weight | does not interfere with the weight gain | did not produce any effect |
